The numbers were not newly measured in patent US20150352111A1, “Therapeutic Indications of Kinase Inhibitors” (Pulmokine, Inc., priority 2013, published 2015), which cites them from elsewhere.

One series relates to phospho-ERK1/2. The conditions noted are these: rat MCT model; cited from earlier work.
The test system of a further series is patients with PAH. The conditions noted are these: cited from earlier work.
The subject of a further series is rat MCT model of PAH. The conditions noted are these: cited from earlier work.
Another series has as its system PASMCs. As to conditions: cited from earlier work.

Consider `Cc1ccc(NC(=O)c2ccc(CN3CCN(C)CC3)cc2)cc1Nc1nccc(-c2cccnc2)n1` [imatinib], for which, in the series with phospho-ERK1/2, the phospho-ERK1/2 entry is listed as “reduction”. The “primary efficacy parameter (6MWD) compared with placebo” value in the series on patients with PAH (6 month period, US 2011/0190313) was “did not improve”. The 6-min walk distance entry in the series on patients with PAH (IMPRES trial, patients with severe PAH) is “improvement”. In the series with rat MCT model of PAH, the RVSP entry is recorded as “decreased” and the survival result is listed as “improved”. In addition, the “migration of PASMCs” value with PASMCs was “inhibited”.
